Values of other authors in US20190091190A1, “COMBINATION THERAPY FOR TREATMENT OF MULTIPLE SCLEROSIS” (FWP IP ApS, priority 2012, published 2019).
Where two headings read alike, the source gives them in different places. Values belong to the compound of their own block, whether it stands above or below them.

Assays:
RRMS patients [1] = tested on: RRMS patients
[2] = 7 mg or 14 mg added to glatiramer acetate, vs placebo added
[3] = 7 mg and 14 mg, add-on to IFN
patients with RRMS [4] = settings: 7 mg po once-daily
RRMS patients [5] = settings: for time to first relapse during the two years of the study: 45.6% on placebo
RRMS patients [6] = tested on: RRMS patients; remark: listed apart in the source
RRMS patients [7] = settings: 0.6 mg once-daily oral
[8] = tested on: patients with EDSS scores of 0-5.5 and relapses; settings: for reduction of frequency of MS relapses vs. placebo: 24 months
patients with RRMS [9] = settings: for reduction of lymphocyte counts: after 1 month; for patients remaining relapse-free: 12 months
patients with RRMS [10] = settings: for reduction of 12-week confirmed disability progression as measured by EDSS: at 2 years

Compound: C/C(O)=C(\C#N)C(=O)Nc1ccc(C(F)(F)F)cc1 [teriflunomide, (Z)-2-cyano-3-hydroxy-but-2-enoic acid-(4′-trifluoro-methylphenyl)-amide]
annualized relapse rate compared to placebo (RRMS patients [1]; 7 mg p.o. once-daily): significant reduction | risk of 12 wk sustained accumulation of disability compared to placebo (RRMS patients [1]; 7 mg p.o. once-daily): no significant difference | reduction in annualized relapse rate compared to placebo (RRMS patients [1]; 14 mg p.o. once-daily): 36.3% | reduction in the risk of 12wk sustained accumulation of disability compared to placebo (RRMS patients [1]; 14 mg p.o. once-daily): 31.5% | reducing T1-Gd lesions [2]: more effective than placebo | reduction in annualized relapse rate [3]: no significant effect | relapse rate (patients with RRMS [4]): 0.410 | reduction of annualized relapse rate (ARR) at 2 years compared to placebo (RRMS patients [5]; 7 mg p.o. once-daily): 31.2% | reduction of risk of disability progression (RRMS patients [5]; 7 mg p.o. once-daily): 24% | reduction of the burden of disease (MRI) compared to placebo (RRMS patients [5]; 7 mg p.o. once-daily): 39% | time to first relapse during the two years of the study (RRMS patients [5]; 7 mg): 53.7% | reduction of annualized relapse rate (ARR) at 2 years compared to placebo (RRMS patients [5]; 14 mg p.o. once-daily): 31.5% | reduction of risk of disability progression (RRMS patients [5]; 14 mg p.o. once-daily): 30% | reduction of the burden of disease (MRI) compared to placebo (RRMS patients [5]; 14 mg p.o. once-daily): 67% | time to first relapse during the two years of the study (RRMS patients [5]; 14 mg): 56.5%

Compound: CCN(C(=O)c1c(O)c2c(Cl)cccc2n(C)c1=O)c1ccccc1 [laquinimod]
reduced ARR (RRMS patients [6]; 0.6 mg once-daily oral, pre-specified sensitivity analysis corrected for baseline imbalances): 21% | reduction in the risk of EDSS progression (RRMS patients [6]; 0.6 mg, corrected analysis, p=0.044): 34% | reduction in brain volume loss (RRMS patients [6]; 0.6 mg, corrected analysis, p=<0.0001): 28% | primary endpoint of reduction in ARR versus placebo (RRMS patients [6]; 0.6 mg, uncorrected, p=0.075): did not reach statistical significance | reduction in ARR (RRMS patients [7]; 24 months, p=0.0024): 23% | reduction in progression of brain atrophy (RRMS patients [7]; p<0.0001): 33% | reduction in the risk of EDDS progression (RRMS patients [7]; p=0.0122): 36%

lymphopenia of less than 0.2×10^9 per liter ([8]; 0.5 mg): 3.5% | lymphopenia of less than 0.2×10^9 per liter ([8]; 1.25 mg): 5.4% | macular edema diagnosed ([8]; 1.25 mg): seven | patients who developed macular edema (patients with RRMS [9]; 0.5 mg): 0.5% | patients who developed macular edema (patients with RRMS [9]; 1.25 mg): 1%
Compound: CCCCCCCCc1ccc(CCC(N)(CO)CO)cc1 [fingolimod]
AEs that led to discontinuation of the study drug ([8]; 0.5 mg): 7.5 % of patients | reduction of frequency of MS relapses vs. placebo ([8]; 0.5 mg/day): 54% | reduction of risk of disability progression vs. placebo ([8]; 0.5 mg/day, confirmed after 3 months): 30% | reduction of risk of disability progression vs. placebo ([8]; 0.5 mg/day, confirmed after 6 months): 37% | AEs that led to discontinuation of the study drug ([8]; 1.25 mg): 14.2 % of patients | reduction of frequency of MS relapses vs. placebo ([8]; 1.25 mg/day): 60% | reduction of risk of disability progression vs. placebo ([8]; 1.25 mg/day, confirmed after 3 months): 32% | reduction of risk of disability progression vs. placebo ([8]; 1.25 mg/day, confirmed after 6 months): 40% | AE leading to the discontinuation of study medication (patients with RRMS [9]; 0.5 mg): 5.6% | overall number of SAE (patients with RRMS [9]; 0.5 mg): 7.0% | reduction of lymphocyte counts (patients with RRMS [9]; 0.5 mg): 73% | 1-year relapse rate lower than with Avonex (patients with RRMS [9]; 0.5 mg/day oral): 52% | patients remaining relapse-free (patients with RRMS [9]; 0.5 mg/day oral): 83% | AE leading to the discontinuation of study medication (patients with RRMS [9]; 1.25 mg): 10.0% | overall number of SAE (patients with RRMS [9]; 1.25 mg): 10.7% | reduction of lymphocyte counts (patients with RRMS [9]; 1.25 mg): 77% | 1-year relapse rate lower than with Avonex (patients with RRMS [9]; 1.25 mg/day oral): 38% | patients remaining relapse-free (patients with RRMS [9]; 1.25 mg/day oral): 80% | time to development of transient, dose-dependent reduction in heart rate (patients with RRMS [9]; after the initial administration): ≤ 1 h

Compound: Glatiramer acetate
reduction of new T1-hypointense lesions (patients with RRMS [10]; 20 mg sc once-daily): 41% | reduction of number of new or newly enlarging T2-hyperintense lesions (patients with RRMS [10]; 20 mg sc once-daily): 54% | reduction of proportion of patients who relapsed (patients with RRMS [10]; 20 mg sc once-daily): 29% | reduction of 12-week confirmed disability progression as measured by EDSS (patients with RRMS [10]; 20 mg sc once-daily): 7%

Compound: COC(=O)/C=C/C(=O)OC [dimethylfumarate, trans-1,2-Ethylenedicarboxylic acid dimethyl ester]
reduction of annualized relapse rate versus placebo (patients with RRMS [10]; 240 mg po BID): 44% | reduction of new T1-hypointense lesions (patients with RRMS [10]; 240 mg po BID): 57% | reduction of number of new or newly enlarging T2-hyperintense lesions (patients with RRMS [10]; 240 mg po BID): 71% | reduction of proportion of patients who relapsed (patients with RRMS [10]; 240 mg po BID): 34% | reduction of 12-week confirmed disability progression as measured by EDSS (patients with RRMS [10]; 240 mg po BID): 21% | reduction of annualized relapse rate versus placebo (patients with RRMS [10]; 240 mg po TID): 51% | reduction of new T1-hypointense lesions (patients with RRMS [10]; 240 mg po TID): 65% | reduction of number of new or newly enlarging T2-hyperintense lesions (patients with RRMS [10]; 240 mg po TID): 73% | reduction of proportion of patients who relapsed (patients with RRMS [10]; 240 mg po TID): 45% | reduction of 12-week confirmed disability progression as measured by EDSS (patients with RRMS [10]; 240 mg po TID): 24% | most common adverse effects (patients with RRMS [10]; dimethylfumarate groups (BID and TID)): flushing and gastrointestinal (GI) events | reduction in annualized relapse rate versus placebo (patients with RRM; 240 po BID): 53% | reduction in proportion of patients who relapsed at 2 years versus placebo (primary endpoint) (patients with RRM; 240 po BID): 49% | reduction in annualized relapse rate versus placebo (patients with RRM; 240 po TID): 48% | reduction in proportion of patients who relapsed at 2 years versus placebo (primary endpoint) (patients with RRM; 240 po TID): 50%
